Laboratory results published in patent US7250401B2, “Therapeutic compositions” (Advanced Therapeutics and Diagnostics, LC, priority 2001, dated 2007).

Test: Reaction with thionitrobenzoate (detection of thiol-reactive substances, loss of absorbance at 412 nm)
Assay type: physicochemical
Conditions: for rate of reaction with thionitrobenzoate: aqueous solution at pH 7 and 25° C.
Experimental: A stock solution of 5-thio-2-nitrobenzoate (hereafter referred to as thionitrobenzoate) was prepared by reduction of 5,5′-dithiobis(2-nitrobenzoic acid) (hereafter referred to as DTNB, Aldrich Chemical Company). This stock solution was prepared by mixing 0.1 ml of 0.1 M DTNB dissolved in ethanol (396 mg of DTNB in 10 ml of ethanol), 0.1 ml of 1 M aqueous potassium phosphate buffer (prepared by mixing equal volumes of 1 M monobasic potassium phosphate with 1 M dibasic potassium phosphate), and 0.025 ml of 1 M sodium borohydride dissolved in 1 M NaOH on ice. After incubating this mixture for 10 minutes at ice temperature, 0.1 mL of 1 M monobasic potassium phosphate was added and the resultant solution was diluted to a final volume of 2 ml by addition of 1.675 ml of water.
An alternate method for preparation of a stock solution of thionitrobenzoate involves the use of 2-mercaptoethanol as reductant, in place of sodium borohydride. In this method a 10 mM solution of DTNB was prepared by mixing 39.6 mg of DTNB with 17 mg of sodium bicarbonate and 4 ml of ice-cold water. After allowing the effervescence to subside, this solution was mixed with 0.01 ml of 0.5 M trisodium ethylenediaminetetracetate and 0.1 ml of 1 M potassium phosphate buffer, then diluted to a final volume of 10 ml with water. A separate stock of 10 mM 2-mercaptoethanol was prepared by dilution of neat 2-mercaptoethanol (14.3 M) with water (serial dilution of 0.01 ml of neat 2-mercaptoethanol to 1 ml to give 0.143 M and then dilution of 0.07 ml of this solution to a final volume of 1 ml to give 10 mM). The stock of 8.7 mM thionitrobenzoate was prepared by mixing 2 ml of 1 M potassium phosphate buffer with 0.2 ml of 10 mM 2-mercaptoethanol and 0.1 ml of 10 mM aqueous DTNB.
If 0.01 ml of the 10 mM stock of thionitrobenzoate, obtained by sodium borohydride reduction of DTNB, was diluted with 0.89 ml of water and 0.1 ml of 1 M phosphate buffer, it gave an absorbance at 412 nm of 1.36 in a 1 cm pathlength cuvette. If 0.01 ml of the 8.7 mM stock of thionitrobenzoate obtained by 2-mercaptoethanol reduction of DTNB was diluted with 0.89 ml of water and 0.1 ml of 1 M phosphate buffer, it gave an absorbance at 412 nm of 1.18 in a 1 cm pathlength cuvette. […] (4 M^−1 s^−1).
(<0.05 M^−1 s^−1). DECOSMe (EXAMPLE 4) reacted with thionitrobenzoate under these conditions at a rate of 4 M^−1 s^−1. DETC-MeSO2 (EXAMPLE 5) reacted with thionitrobenzoate under these conditions at a rate of 0.4 M^−1 s^−1. S-Methyl-O-(N,N-diethylcarbamoyl)sulfinate (DECO2SMe, prepared by rearrangement of DETC-MeSO2 under the conditions described in EXAMPLE 4) reacted with thionitrobenzoate under these conditions at a rate of 14 M^−1 s^−1.

| SMILES | rate of reaction with thionitrobenzoate, prior to rearrangement to DECOSMe (0.01 ml of 5 mM aqueous solution, freshly synthesized, anaerobic conditions, up to 24 hours) | rate of reaction with thionitrobenzoate [M⁻¹ s⁻¹] | half time of first-order decay of absorbance at 412 nm (0.01 ml of 0.1 M aqueous solution added to thionitrobenzoate assay mixture, 25° C.) [min] | rate of reaction with thionitrobenzoate (from first-order decay of absorbance at 412 nm) (0.01 ml of 0.1 M aqueous solution added, 25° C.) [M⁻¹ s⁻¹] |
| --- | --- | --- | --- | --- |
| CCN(CC)C(=O)[S+](C)[O-] (stereo not drawn) [DETC-MeSO, S-Methyl-N,N-Diethylthiolcarbamate Sulfoxide] | less than 0.01 M^−1 s^−1 |  |  |  |
| CCN(CC)C(=O)OS(C)=O (stereo not drawn) [DECO2SMe, S-Methyl-O-(N,N-diethylcarbamoyl)sulfinate] |  | 14 |  |  |
| CCN(CC)C(=O)S(C)(=O)=O [DETC-MeSO2, S-Methyl-N,N-Diethylthiolcarbamate Sulfone] |  | 0.4 |  |  |
| CCN(CC)C(=O)OSC [DECOSMe, S-Methyl-O-(N,N-Diethylcarbamoyl)Sulfenate] |  | 4 | 2.9 | 4 |
